# Source: patent publication US20090286831A1, “VR1 Receptor Ligands and u-Opioid Receptor Ligands for the Treatment of Pain” (priority 2006, published 2009)
# Marks after values point to notes of the source that are not given here.
# How the values were obtained:
# [1] = target: T1, human recombinant μ-opioid receptor (Homo sapiens, UniProt P35372); experiment: Ki value at the μ-opioid receptor (Experiment 4); assay type: binding
# T1 construct: expressed in transfected cells; host or cells: CHO-K1 cells (membrane preparation)
# T1 sequence (P35372 whole entry): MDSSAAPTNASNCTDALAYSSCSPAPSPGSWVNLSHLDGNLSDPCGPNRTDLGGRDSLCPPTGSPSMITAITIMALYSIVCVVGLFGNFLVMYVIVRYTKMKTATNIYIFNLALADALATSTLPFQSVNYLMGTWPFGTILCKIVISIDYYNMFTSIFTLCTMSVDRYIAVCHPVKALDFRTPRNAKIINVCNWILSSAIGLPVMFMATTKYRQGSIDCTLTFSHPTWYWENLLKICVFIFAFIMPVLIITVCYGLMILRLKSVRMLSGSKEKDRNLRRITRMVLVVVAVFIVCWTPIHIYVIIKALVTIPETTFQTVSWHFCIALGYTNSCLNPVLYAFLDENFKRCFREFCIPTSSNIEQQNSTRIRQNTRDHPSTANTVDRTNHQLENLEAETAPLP
# [2] = target: T2, human VR1 (Homo sapiens, UniProt Q8NER1); experiment: FLIPR pH assay; assay type: cell-based
# T2 construct: expressed in transfected cells; host or cells: CHO K1 cells (ECACC), stably transfected
# T2 sequence (Q8NER1 whole entry): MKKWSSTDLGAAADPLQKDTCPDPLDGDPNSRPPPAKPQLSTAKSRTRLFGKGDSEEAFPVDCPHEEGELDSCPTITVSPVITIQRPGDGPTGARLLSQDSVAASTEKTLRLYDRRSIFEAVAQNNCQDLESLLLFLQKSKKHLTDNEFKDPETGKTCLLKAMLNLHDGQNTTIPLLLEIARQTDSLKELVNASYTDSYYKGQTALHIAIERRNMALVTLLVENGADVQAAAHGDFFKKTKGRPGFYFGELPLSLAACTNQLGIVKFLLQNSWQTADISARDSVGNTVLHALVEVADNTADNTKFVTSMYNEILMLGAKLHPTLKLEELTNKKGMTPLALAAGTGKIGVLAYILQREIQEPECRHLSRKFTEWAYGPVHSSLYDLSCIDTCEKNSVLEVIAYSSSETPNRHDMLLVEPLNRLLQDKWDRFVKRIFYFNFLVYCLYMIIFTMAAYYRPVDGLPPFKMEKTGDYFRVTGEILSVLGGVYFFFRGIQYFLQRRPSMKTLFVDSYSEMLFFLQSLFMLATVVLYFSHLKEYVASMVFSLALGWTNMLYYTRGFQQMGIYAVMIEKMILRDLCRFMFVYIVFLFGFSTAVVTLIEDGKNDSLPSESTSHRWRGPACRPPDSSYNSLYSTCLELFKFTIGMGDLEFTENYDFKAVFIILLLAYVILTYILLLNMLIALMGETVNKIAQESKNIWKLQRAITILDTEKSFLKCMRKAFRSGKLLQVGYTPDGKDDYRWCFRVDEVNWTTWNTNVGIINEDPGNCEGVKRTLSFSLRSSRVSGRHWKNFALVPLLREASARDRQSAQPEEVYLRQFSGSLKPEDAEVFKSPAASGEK
# Description: (§1) The agonist or antagonist effect of substances can be determined at the vanilloid receptor 1 (VR1/TRPV1) of the human and rat species with the assay described below. Accordingly, the Ca^2+ influx through the channel is quantified by means of a Ca^2+-sensitive dye (Fluo-4, Molecular Probes Europe BV, Leiden, The Netherlands) in the fluorescent imaging plate reader (FLIPR, Molecular Devices, Sunnyvale, USA).
# (§2) Chinese hamster ovary cells (CHO K1 cells, ECACC, England) are stably transfected with human or rat VR1 cDNA. For functional studies these cells are plated onto poly-D-lysine-coated black 96-hole plates with a clear base (BD Biosciences, Heidelberg, Germany) in a density of 25 000 cells/cavity. The cells are incubated overnight at 37° C. with 5% CO2 in culture medium (nutrient mixture Ham's F12, Gibco Invitrogen GmbH, Karlsruhe, Germany) with 10% vol. FBS (foetal bovine serum, Gibco Invitrogen GmbH, Karlsruhe, Germany) and 18 μg/ml of L-proline (Gibco Invitrogen GmbH, Karlsruhe, Germany). On the following day, the cells are laden with 2 μM Fluo-4 and 0.01% vol. Pluronic F127 (Molecular Probes Europe BV, Leiden, The Netherlands) in HBSS buffer (Hank's buffered saline solution, Gibco Invitrogen GmbH, Karlsruhe, Germany) for 30 min at 37° C. The plates are then washed 3 times in HBSS buffer and after further incubation for 15 minutes at room temperature are placed in the FLIPR for the Ca^2+ measurement. In this case, the Ca^2+-dependent fluorescence is measured before and after the addition of substances (λex=488 nm, λem=540 nm). Quantification occurs as a result of the measurement of the highest fluorescence intensity (FC, fluorescence counts) over time.
# In the pH assay, HBSS that now contains 60 mM MES instead of capsaicin is applied to human VR1-transfected CHO K1 cells (adjusted pH value of the addition solution is 4.95). Percentage inhibition and IC50 values are raised and evaluated as already described for the capsaicin test.
# [3] = target: T3, vanilloid receptor 1 (VR1/TRPV1) (Homo sapiens, UniProt Q8NER1); experiment: FLIPR capsaicin assay; assay type: cell-based, human or rat; settings: functional Ki, capsaicin 100 nM, VR1-transfected CHO K1 cells, modified Cheng-Prusoff; read-out: f(Ki) (VR1)
# T3 construct: expressed in transfected cells; host or cells: CHO K1 cells (ECACC), stably transfected
# T3 sequence (Q8NER1 whole entry): as above
# Description: as §1, §2
# The FLIPR protocol consists of 2 substance additions. Test substances (10 μM) are firstly pipetted onto the cells and the Ca^2+ influx is compared to the control (capsaicin 10 μM). This gives the specification in % activation in relation to the Ca^2+ signal after adding 10 μM of capsaicin. After 5 minutes incubation 100 nM of capsaicin are applied and the influx of Ca^2+ likewise determined. Desensitising agonists and antagonists lead to a suppression of the Ca^2+ influx. Inhibition values [%] are calculated in comparison to the maximum achievable inhibition with a saturating concentration of […] or another reference antagonist. The test substance is added in different concentrations to determine the IC50 and functional Ki value ((f)Ki). Triple determinations (n=3) are conducted and these are repeated in at least one further independent experiment (N>=2). A capsaicin dose action curve is generated to incorporate the thus determined EC50 values into the associated (f)Ki determination. EC50/IC50 values are calculated using ‘Prism4’ software from GraphPad Software™ or with XLfit4™ (ID Business Solutions Ltd.). (f)Ki values are calculated in accordance with the modified Cheng-Prusoff equation (Cheng, Prusoff; Biochem. Pharmacol. 22, 3099-3108, 1973). Testing for non-specific inhibition of the fluorescence as a result of the substances is conducted by activating wild type CHO K1 cells incubated with the same test substances with ATP (10 μM final concentration).
# [4] = system: rats; experiment: Tail-flick (hot beam) test in rats; assay type: in vivo, rat
# [5] = system: rats after spinal nerve ligature; experiment: Mono-neuropathic pain after spinal nerve ligature (Chung model), electronic von Frey; assay type: in vivo, rat
# Procedure: (§3) Sprague Dawley rats (140-160 g body weight) were used for the following animal models. Sprague Dawley rats (140-160 g body weight) from a commercial breeder (Janvier, Genest St. Isle, France) were used. The animals were kept under standard conditions: light-dark rhythm (06:00 to 18:00 h light, 18:00 to 06:00 h dark), room temperature 19-23° C., relative air humidity 45-65%, air exchange 19 times per hour, air movement <0.2 m/s, free choice of tap water and standard feed, Macrolon Type 4 cages with 5 animals per cage. The solutions of the test substances and/or vehicles (10% […], 5% Cremophor EL, 5% glucose) were administered intravenously.
# Under pentobarbital narcosis (Narcoren®, […] i.p., Merial GmbH, Hallbergmoos, Germany), the L5, L6 spinal nerves were firmly bound. The left L5 and L6 spinal nerves were exposed by removing a piece of paravertebral muscle and a portion of the left spinal process of the L5 lumbar vertebral body. The L5 and L6 spinal nerves were carefully isolated and bound with a firm ligature (NC silk, black, USP 5/0, metric 1, Braun Melsungen AG, Melsungen, Germany) (Kim and Chung, An experimental model for peripheral neuropathy produced by segmental spinal nerve ligature in the rat, Pain, 50, 1992, 355-363). After haemostasis was determined, the muscle and adjacent tissue were sutured and the wound closed by metal clamps. After a one-week recovery period the animals were placed in cages with a wire base closed to the top by a plastic hood for measurement of the mechanical allodynia. The animals were kept in this cage until their explorative behaviour had decreased.
# The threshold for the tactile allodynia was measured by means of an electronic von Frey anaesthesiometer (Somedic AB, Malmö, Sweden). The animals were randomly divided into groups of 10 animals. Each group received an individual dose of test substance or vehicle and the measurements were conducted 0.5 h before application and at various times after intravenous administration. Both the ipsi- and the contra-lateral rear paw were tested. The median of five stimulations gave a measured data point. The data were determined as % maximum possible effect (% MPE) from the pre-tests of the Chung individual animals (=0% MPE) and the test values of an independent sham control group (=100% MPE). The effect of the test substance and the vehicle was calculated for each measurement time (i.e. 0.5, 1 and 3 h after application) as inter-individual % MPE value. […] The corresponding threshold values are given in gram (mean±SEM).
# [6] = system: rats; experiment: Tail-flick (hot beam) test in rats; assay type: in vivo, rat; remark: listed apart in the source
# Procedure: as §3
# The analgesic efficacy of the test compounds was examined in the hot beam (tail flick) test in rats using the method of D'Amour and Smith (J. Pharm. Exp. Ther. 1941, 72, 74-79). The time from switching on the lamp (8V/50 W) to the sudden flicking away of the tail from the hot beam (pain latency) was measured by means of a semiautomatic apparatus (tail-flick Analgesiemeter Type 50/08/1.bc, Labtec, Dr. Hess, Germany). The lamp intensity was adjusted before conducting the experiments so that the time from switching on the lamp to the sudden flicking away of the tail (pain latency) amounted to 3-5 seconds in untreated animals. The lamp was automatically switched off after 12 seconds to avoid tissue damage to the rat's tail. The pain latency was measured 10, 20, 40 and 60 min after intravenous administration. The analgesic effect was determined as increase in pain latency (% MPE) according to the following formula: […]
# In this case, T0 is the latency time before and T1 the latency time after substance application, T2 is the maximum exposure time (12 sec). Results of the analgesia study in the tail-flick test in rats:
# The following experiments of Example 2 relate to binding studies and the analgesic efficacy of the compounds with dual mode of action according to the invention. The experiments comprise the determination of the (f)Ki value at the TPRV1 receptor, the Ki value at the μ-opioid receptor and the hypothermia assay in mice. The tail-flick test for the compounds [1], [4], [7] and [10] according to the invention was conducted in a similar manner to the above-described method (cf. Example 1, experiment 1).
# [7] = AMG-9810 2.15 mg/kg i.v. group, Control (pre-test 0.5 h before application)
# [8] = AMG-9810 2.15 mg/kg i.v., 30 min
# [9] = AMG-9810 2.15 mg/kg i.v., 60 min
# [10] = AMG-9810 2.15 mg/kg i.v., 180 min
# [11] = Morphine 1.0 mg/kg i.v. group, Control (pre-test 0.5 h before application)
# [12] = Morphine 1.0 mg/kg i.v., 30 min
# [13] = Morphine 1.0 mg/kg i.v., 60 min
# [14] = Morphine 1.0 mg/kg i.v., 180 min
# [15] = Morphine 2.0 mg/kg i.v. group, Control (pre-test 0.5 h before application)
# [16] = Morphine 2.0 mg/kg i.v., 30 min
# [17] = Morphine 2.0 mg/kg i.v., 60 min
# [18] = Morphine 2.0 mg/kg i.v., 180 min
smiles,measurement,setting,value
"CC(C(=O)NCc1ccc(C(F)(F)F)nc1N1CCC(c2ccccc2)(N(C)C)CC1)c1ccc(NS(C)(=O)=O)c(F)c1 (stereo not drawn) [[1], N-((2-(4-(dimethylamino)-4-phenylpiperidin-1-yl)-6-(trifluoromethyl)pyridin-3-yl)methyl)-2-(3-fluoro-4-(methylsulfonamido)phenyl)propanamide]",Ki,[1],46 nM
same,IC50,[2],806 nM
same,Ki,[3],31.3 nM
same,Tail-Flick [% MPE],[4]; dosage 1 mg/kg p.o.,50%^2) % MPE
CC(C)(C)c1ccc(/C=C/C(=O)Nc2ccc3c(c2)OCCO3)cc1 [AMG-9810],"% MPE (increase in pain latency), mean","[4]; AMG-9810 10 mg/kg i.v., 40 min",4.38 % MPE
same,"pull-away threshold value, contra-lateral rear paw, mean",[5]; [7],57.79 gram
same,"pull-away threshold value, ipsi-lateral rear paw, mean",[5]; [7],23.23 gram
same,"pull-away threshold value, contra-lateral rear paw, mean",[5]; [8],55.91 gram
same,"pull-away threshold value, ipsi-lateral rear paw, mean",[5]; [8],32.27 gram
same,"pull-away threshold value, contra-lateral rear paw, mean",[5]; [9],52.4 gram
same,"pull-away threshold value, ipsi-lateral rear paw, mean",[5]; [9],31.18 gram
same,"pull-away threshold value, contra-lateral rear paw, mean",[5]; [10],57.38 gram
same,"pull-away threshold value, ipsi-lateral rear paw, mean",[5]; [10],26.94 gram
same,"% MPE (increase in pain latency), mean","[6]; AMG-9810 10 mg/kg i.v., 10 min",26.36 % MPE
same,"% MPE (increase in pain latency), mean","[6]; AMG-9810 10 mg/kg i.v., 20 min",11.44 % MPE
same,"% MPE (increase in pain latency), mean","[6]; AMG-9810 10 mg/kg i.v., 60 min",−4.06 % MPE
"CN1CC[C@]23c4c5ccc(O)c4O[C@H]2[C@@H](O)C=C[C@H]3[C@H]1C5 [Morphine, morphine]","% MPE (increase in pain latency), mean","[4]; Morphine 0.4 mg/kg i.v., 20 min",23.62 % MPE
same,"% MPE (increase in pain latency), mean","[4]; Morphine 0.4 mg/kg i.v., 40 min",14.1 % MPE
same,"% MPE (increase in pain latency), mean","[4]; Morphine 0.8 mg/kg i.v., 10 min",45.31 % MPE
same,"% MPE (increase in pain latency), mean","[4]; Morphine 0.8 mg/kg i.v., 20 min",45.02 % MPE
same,"% MPE (increase in pain latency), mean","[4]; Morphine 0.8 mg/kg i.v., 40 min",25.86 % MPE
same,"% MPE (increase in pain latency), mean","[4]; Morphine 0.8 mg/kg i.v., 60 min",14.62 % MPE
same,"pull-away threshold value, contra-lateral rear paw, mean",[5]; [11],56.81 gram
same,"pull-away threshold value, ipsi-lateral rear paw, mean",[5]; [11],23.63 gram
same,"pull-away threshold value, contra-lateral rear paw, mean",[5]; [12],67.87 gram
same,"pull-away threshold value, ipsi-lateral rear paw, mean",[5]; [12],32.13 gram
same,"pull-away threshold value, contra-lateral rear paw, mean",[5]; [13],60.95 gram
same,"pull-away threshold value, ipsi-lateral rear paw, mean",[5]; [13],27.65 gram
same,"pull-away threshold value, contra-lateral rear paw, mean",[5]; [14],54.63 gram
same,"pull-away threshold value, ipsi-lateral rear paw, mean",[5]; [14],30.67 gram
same,"pull-away threshold value, contra-lateral rear paw, mean",[5]; [15],58.39 gram
same,"pull-away threshold value, ipsi-lateral rear paw, mean",[5]; [15],24.37 gram
same,"pull-away threshold value, contra-lateral rear paw, mean",[5]; [16],82.83 gram
same,"pull-away threshold value, ipsi-lateral rear paw, mean",[5]; [16],48.44 gram
same,"pull-away threshold value, contra-lateral rear paw, mean",[5]; [17],74.68 gram
same,"pull-away threshold value, ipsi-lateral rear paw, mean",[5]; [17],44.87 gram
same,"pull-away threshold value, contra-lateral rear paw, mean",[5]; [18],59.93 gram
same,"pull-away threshold value, ipsi-lateral rear paw, mean",[5]; [18],39.19 gram
same,efficacy (conclusion),"[5]; combination of two threshold doses of the same opioid, pull away increased on ipsi- and contra-lateral paw",additive antinociceptive efficacy
same,"% MPE (increase in pain latency), mean","[6]; Morphine 0.4 mg/kg i.v., 10 min",26.51 % MPE
same,"% MPE (increase in pain latency), mean","[6]; Morphine 0.4 mg/kg i.v., 60 min",4.23 % MPE
same,antinociceptive efficacy (conclusion),[6]; combination of two threshold doses of the same opioid,additive antinociceptive efficacy
